Data reported in publication PMC9291687.
Like-named read-outs stand apart in the source and are kept apart here.

Key:
lung cancer (A-549) = experiment: MTT antiproliferative assay, A-549; details: for Growth inhibition (%) A549: 100 μM, MTT; for IC50 / inhibition at 100 µM: Homo sapiens; for inhibition at 100 µM: A549, read-out: Growth inhibition (%) A549
Procedure: (§1) Preliminary screening against the cancer cell lines was performed, using doxorubicin as a reference drug at doses of 100 μM.
(§2) In vitro cytotoxicity was carried out using MTT assay protocol[63] as described in Supplementary data.
(§3) proliferative activity was assessed quantitatively as follows;
(§4) Human cancer cell lines were dropped in 96-well plates at a density of 3-8 × 10^3 cells/well.
(§5) growth medium was exchanged with 0.1 ml of fresh medium containing graded concentrations of the test compounds to be or equal DMSO and incubated for two days. Then 10 μl MTT solution (0.5 mg/ml) was added to each well, and the cells were incubated for additional 4 h. The crystals of MTT-formazan were dissolved in 100 μl of DMSO; the absorbance of each well was measured at 490 nm using an automatic ELISA reader system (TECAN, CHE). The IC50 values were calculated using the nonlinear regression fitting models (Graph Pad, Prism Version 5). The data represented the mean of three independent experiments in triplicate and were expressed as means
(§6) The results were expressed as growth inhibitory concentration (IC50) values and

breast cancer (MCF-7) = experiment: MTT antiproliferative assay, MCF-7; details: for Growth inhibition (%) MCF-7: 100 μM, MTT; for IC50 / inhibition at 100 µM: Homo sapiens; for IC50: MCF7, read-out: IC50 MCF-7; for inhibition at 100 µM: MCF7, read-out: Growth inhibition (%) MCF-7
Procedure: as §1, §2, §3, §4, §5, §6

prostate cancer (PC-3) = experiment: MTT antiproliferative assay, PC-3; details: for Growth inhibition (%) PC-3: 100 μM, MTT; for IC50 / inhibition at 100 µM: Homo sapiens; for IC50: read-out: IC50 PC-3; for inhibition at 100 µM: read-out: Growth inhibition (%) PC-3
Procedure: as §1, §2, §3, §4, §5, §6

colon cancer (HCT-116) = experiment: MTT antiproliferative assay, HCT-116; details: for Growth inhibition (%) HCT-116: 100 μM; for Growth inhibition (%) HCT-116 / Cytotoxic activity against HCT-116: MTT; for inhibition at 100 µM / IC50: Homo sapiens; for inhibition at 100 µM: HCT-116, read-out: Growth inhibition (%) HCT-116; for IC50: HCT-116, read-out: IC50 HCT-116
Procedure: as §1, §2, §3, §4, §5, §6

EGFR^T790M = EGFR^T790M (Homo sapiens, UniProt P00533, T790M); experiment: EGFRT790M kinase inhibitory assay (HTRF)
Procedure: (§7) In vitro EGFR inhibitory activity was assessed using Homogeneous time-resolved fluorescence (HTRF) assay[64] as described in Supplementary data.
(§8) The IC50 values were calculated using the nonlinear regression fitting models (Graph Pad, Prism Version 5).
(§9) EGFRWT and EGFRT790M kinase inhibitory assay
(§10) Homogeneous time resolved fluorescence (HTRF) assay was applied in this test.
(§11) EGFRWT, EGFRT790M (Sigma). firstly, the EGFRWT and/or EGFRT790M and their substrates were incubated with the tested compounds in enzymatic buffer for 5 min.
(§12) into the reaction mixture to allow starting the enzymatic reaction. The assay was conducted for 30 min at room temperature. The reaction was stopped by addition of detection reagents which contain
(§13) GraphPad Prism 5.0. Three independent experiments were performed for each concentration.

EGFR^WT = EGFR^WT (Homo sapiens, UniProt P00533); experiment: EGFRWT kinase inhibitory assay (HTRF)
Procedure: as §7, §8, §9, §10, §11, §12, §13

caspase-3 in PC-3 cells = experiment: Caspase-3 determination (ELISA); type: cell-based, human; details: 24 h treatment, 8a at 3.04 µM, control 84.24, mean ± SEM
[1] = A549, read-out: IC50 A-549, MTT, mean of at least three experiments

Chain of EGFR^T790M (P00533 25-1210 T790M): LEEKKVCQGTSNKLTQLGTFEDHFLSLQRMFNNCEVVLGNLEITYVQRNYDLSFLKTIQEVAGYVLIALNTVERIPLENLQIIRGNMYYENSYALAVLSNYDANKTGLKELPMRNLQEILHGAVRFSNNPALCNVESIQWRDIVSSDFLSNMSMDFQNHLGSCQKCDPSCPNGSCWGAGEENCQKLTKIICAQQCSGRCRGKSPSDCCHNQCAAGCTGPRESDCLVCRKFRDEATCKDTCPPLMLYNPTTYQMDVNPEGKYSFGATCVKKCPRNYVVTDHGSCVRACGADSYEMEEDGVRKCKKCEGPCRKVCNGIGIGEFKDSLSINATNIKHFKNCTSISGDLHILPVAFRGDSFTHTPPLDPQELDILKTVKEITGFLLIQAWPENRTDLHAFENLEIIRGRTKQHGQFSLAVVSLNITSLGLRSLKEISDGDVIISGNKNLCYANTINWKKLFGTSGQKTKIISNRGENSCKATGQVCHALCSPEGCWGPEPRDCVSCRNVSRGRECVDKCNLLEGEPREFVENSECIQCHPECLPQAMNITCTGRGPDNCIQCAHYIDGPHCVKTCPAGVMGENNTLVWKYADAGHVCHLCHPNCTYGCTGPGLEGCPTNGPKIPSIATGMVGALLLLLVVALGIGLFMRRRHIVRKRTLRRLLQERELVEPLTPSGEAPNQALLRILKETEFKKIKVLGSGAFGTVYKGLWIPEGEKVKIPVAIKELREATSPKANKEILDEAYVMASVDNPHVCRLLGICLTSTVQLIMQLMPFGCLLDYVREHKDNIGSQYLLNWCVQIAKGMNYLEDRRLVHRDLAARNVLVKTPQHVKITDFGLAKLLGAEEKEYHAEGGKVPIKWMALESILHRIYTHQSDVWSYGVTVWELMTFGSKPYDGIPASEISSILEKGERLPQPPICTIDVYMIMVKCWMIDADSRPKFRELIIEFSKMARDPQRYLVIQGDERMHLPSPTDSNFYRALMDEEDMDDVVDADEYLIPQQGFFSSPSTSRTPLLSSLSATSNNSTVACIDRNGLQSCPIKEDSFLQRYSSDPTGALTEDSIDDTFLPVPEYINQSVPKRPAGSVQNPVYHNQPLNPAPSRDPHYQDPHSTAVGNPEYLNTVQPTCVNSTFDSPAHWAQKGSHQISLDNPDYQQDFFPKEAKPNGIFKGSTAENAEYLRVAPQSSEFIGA
Chain of EGFR^WT (P00533 25-1210): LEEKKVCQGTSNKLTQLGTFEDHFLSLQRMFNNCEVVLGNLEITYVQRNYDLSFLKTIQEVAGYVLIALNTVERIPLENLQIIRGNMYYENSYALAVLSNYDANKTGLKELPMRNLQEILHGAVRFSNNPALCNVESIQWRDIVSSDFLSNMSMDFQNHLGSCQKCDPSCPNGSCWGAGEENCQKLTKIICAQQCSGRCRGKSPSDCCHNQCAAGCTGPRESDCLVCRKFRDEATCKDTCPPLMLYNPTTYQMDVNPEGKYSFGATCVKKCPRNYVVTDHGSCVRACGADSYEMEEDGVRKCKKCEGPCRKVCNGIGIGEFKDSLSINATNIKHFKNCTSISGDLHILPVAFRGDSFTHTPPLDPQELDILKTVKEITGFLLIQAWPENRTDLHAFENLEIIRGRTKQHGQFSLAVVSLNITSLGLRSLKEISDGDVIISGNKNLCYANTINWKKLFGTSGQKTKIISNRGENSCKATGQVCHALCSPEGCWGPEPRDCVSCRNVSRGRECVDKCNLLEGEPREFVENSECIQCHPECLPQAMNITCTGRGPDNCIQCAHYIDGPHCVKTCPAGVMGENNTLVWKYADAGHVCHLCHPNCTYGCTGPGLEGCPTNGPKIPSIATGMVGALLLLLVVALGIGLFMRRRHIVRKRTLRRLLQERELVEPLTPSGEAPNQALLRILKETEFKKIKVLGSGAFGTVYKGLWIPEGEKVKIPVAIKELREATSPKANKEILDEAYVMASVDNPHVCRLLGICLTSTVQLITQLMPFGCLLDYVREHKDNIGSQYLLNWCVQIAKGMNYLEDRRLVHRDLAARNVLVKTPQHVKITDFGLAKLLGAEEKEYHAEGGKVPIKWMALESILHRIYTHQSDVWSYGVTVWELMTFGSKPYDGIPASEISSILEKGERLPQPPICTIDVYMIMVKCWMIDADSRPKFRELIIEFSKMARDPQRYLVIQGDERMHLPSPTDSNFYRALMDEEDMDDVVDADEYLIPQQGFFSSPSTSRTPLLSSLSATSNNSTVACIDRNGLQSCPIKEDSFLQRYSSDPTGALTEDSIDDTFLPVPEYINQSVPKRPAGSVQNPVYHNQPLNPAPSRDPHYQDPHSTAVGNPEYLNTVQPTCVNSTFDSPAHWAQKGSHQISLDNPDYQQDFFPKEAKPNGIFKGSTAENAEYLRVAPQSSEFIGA

Compound	melting point [°C]	inhibition at 100 µM (lung cancer (A-549)) [%]	inhibition at 100 µM (breast cancer (MCF-7)) [%]	inhibition at 100 µM (prostate cancer (PC-3)) [%]	inhibition at 100 µM (colon cancer (HCT-116)) [%]	further results
3-Amino-6–(4-methoxyphenyl)-8-(p-tolyl)-2,3-dihydropyrido[2,3-d][1, 2, 4] triazolo[4,3-a]pyrimidin-5(1H)-one [Compound 11c]	–	–	–	–	–	Growth inhibition (%) A549 (lung cancer (A-549)): 26%; Growth inhibition (%) MCF-7 (breast cancer (MCF-7)): 23%; Growth inhibition (%) PC-3 (prostate cancer (PC-3)): 28%; Growth inhibition (%) HCT-116 (colon cancer (HCT-116)): 3%
C#Cc1cccc(Nc2ncnc3cc(OCCOC)c(OCCOC)cc23)c1 [Erlotinib, reference compound]	–	–	–	–	–	IC50 (lung cancer (A-549); A549, read-out: IC50 A-549): 6.53 ± 0.82 µM; IC50 (breast cancer (MCF-7)): 4.21 ± 0.62 µM; IC50 (prostate cancer (PC-3)): 11.1 ± 1.07 µM
3-Amino-8-(p-Tolyl)-6–(3,4,5-trimethoxyphenyl)-2,3-dihydropyrido[2,3-d][1, 2, 4]triazolo[4,3-a]pyrimidin-5(1H)-one [Compound 11e]	–	–	–	–	–	Growth inhibition (%) A549 (lung cancer (A-549)): 30%; Growth inhibition (%) MCF-7 (breast cancer (MCF-7)): 23%; Growth inhibition (%) PC-3 (prostate cancer (PC-3)): 22%; Growth inhibition (%) HCT-116 (colon cancer (HCT-116)): 6%
COc1cc(-c2cc(-c3ccc(C)cc3)nc3nc4[nH][nH]c(=O)n4c(=O)c23)cc(OC)c1OC [Compound 10d, 8-(p-Tolyl)-6–(3,4,5-trimethoxyphenyl)-1,2-dihydropyrido[2,3-d][1,2, 4]triazolo [4,3-a]pyrimidine-3,5-dione]	391 to 393	2	5	8	5	–
NNc1nc2nc(-c3ccc(Cl)cc3)cc(-c3ccc(Cl)cc3Cl)c2c(=O)[nH]1 [Compound 9a, 7-(4-Chlorophenyl)-5–(2,4-dichlorophenyl)-2-hydrazineylpyrido[2,3-d]pyrimidin-4(3H)-one]	265 to 267	42	68	90	89	IC50 (EGFR^T790M): 0.571 ± 0.046 µM; IC50 (EGFR^WT): 0.594 ± 0.042 µM; IC50 (breast cancer (MCF-7)): 42 ± 1.2 µM; IC50 (prostate cancer (PC-3)): 9.26 ± 2.4 µM
COc1cc(-c2cc(-c3ccc(Cl)cc3)nc3nc4[nH]nc(-c5ccccc5)n4c(=O)c23)cc(OC)c1OC [Compound 12c, 8-(4-Chlorophenyl)-3-phenyl-6–(3,4,5-trimethoxyphenyl)pyrido[2,3-d][1,2, 4]triazolo[4,3-a]pyrimidin-5(1H)-one]	313 to 315	22	55	30	33	–
COc1ccc(-c2cc(-c3ccc(C)cc3)nc3nc4[nH]c5ccccc5c(=O)n4c(=O)c23)cc1 [Compound 8b, 4–(4-Methoxyphenyl)-2-(p-tolyl)-5H-pyrido[2',3':4,5] pyrimido[2,1-b] quinazoline-5,7(12H)-dione]	> 300	94	9	96	67	IC50 (EGFR^T790M): 0.29 µM; IC50 (lung cancer (A-549); [1]): 16 µM; IC50 (prostate cancer (PC-3)): 18 ± 2.3 µM; IC50 (colon cancer (HCT-116)): 26 ± 1.3 µM; Cytotoxic activity against HCT-116 (colon cancer (HCT-116)): mild cytotoxic activity
Cc1ccc(-c2cc(-c3ccc(Cl)cc3)nc3nc4[nH]nc(-c5ccccc5)n4c(=O)c23)cc1 [Compound 12a, 8–(4-Chlorophenyl)-3-phenyl-6-(p-tolyl)pyrido[2,3-d][1,2, 4]triazolo[4,3-a]pyrimidin-5(1H)-one]	315 to 317	41	45	28	35	–
Cc1ccc(-c2cc(-c3ccc(Cl)cc3)nc3nc4[nH][nH]c(=O)n4c(=O)c23)cc1 [Compound 10a, 8-(4-Chlorophenyl)-6-(p-tolyl)-1,2-dihydropyrido[2,3-d][1,2, 4]triazolo[4,3-a]pyrimidine-3,5-dione]	347 to 349	17	41	29	21	–
COc1ccc(-c2cc(-c3ccc(C)cc3)nc3nc4[nH][nH]c(=O)n4c(=O)c23)cc1 [Compound 10b, 6-(4-Methoxyphenyl)-8-(p-tolyl)-1,2-dihydropyrido[2,3-d][1,2, 4]triazolo[4,3-a]pyrimidine-3,5-dione]	366 to 368	7	4	15	14	–
CN[C@@H]1C[C@H]2O[C@@](C)([C@@H]1OC)n1c3ccccc3c3c4c(c5c6ccccc6n2c5c31)C(=O)NC4 [Staurosporine, reference compound]	–	–	–	–	–	Caspase-3 level (caspase-3 in PC-3 cells): 413.1 ± 11.66 pg/mL; Caspase-3 level (caspase-3 in PC-3 cells; listed as staurosporine): 413.1 pg/mL
3-Amino-8–(4-chlorophenyl)-6-(p-tolyl)-2,3-dihydropyrido[2,3-d][1, 2, 4] triazolo[4,3-a]pyrimidin-5(1H)-one [Compound 11b]	–	–	–	–	–	Growth inhibition (%) A549 (lung cancer (A-549)): 28%; Growth inhibition (%) MCF-7 (breast cancer (MCF-7)): 29%; Growth inhibition (%) PC-3 (prostate cancer (PC-3)): 43%; Growth inhibition (%) HCT-116 (colon cancer (HCT-116)): 15%
3-Amino-8–(4-chlorophenyl)-6–(2,4-dichlorophenyl)-10,10a-dihydropyrido [2,3-d][1, 2, 4]triazolo[4,3-a]pyrimidin-5(1H)-one [Compound 11a]	–	–	–	–	–	Growth inhibition (%) A549 (lung cancer (A-549)): 2%; Growth inhibition (%) MCF-7 (breast cancer (MCF-7)): 7%; Growth inhibition (%) PC-3 (prostate cancer (PC-3)): 30%; Growth inhibition (%) HCT-116 (colon cancer (HCT-116)): 9%
COc1cccc2c1C(=O)c1c(O)c3c(c(O)c1C2=O)C[C@@](O)(C(=O)CO)C[C@@H]3O[C@H]1C[C@H](N)[C@H](O)[C@H](C)O1 [Doxorubicin, reference compound]	–	100	100	100	100	–
COc1ccc(-c2cc(-c3ccc(C)cc3)nc3nc4[nH]nc(-c5ccccc5)n4c(=O)c23)cc1 [Compound 12b, 6-(4-Methoxyphenyl)-3-phenyl-8-(p-tolyl)pyrido[2,3-d][1,2, 4]triazolo[4,3-a]pyrimidin-5(1H)-one]	325 to 327	33	54	36	56	IC50 (colon cancer (HCT-116)): 86.3 ± 2.2 µM; Cytotoxic activity against HCT-116 (colon cancer (HCT-116)): mild cytotoxic activity
3-Amino-8–(4-chlorophenyl)-6–(3,4,5-trimethoxyphenyl) -2,3dihydropyrido[2,3-d][1, 2, 4]triazolo[4,3-a] pyrimidin-5(1H)-one [Compound 11d]	–	–	–	–	–	Growth inhibition (%) A549 (lung cancer (A-549)): 5%; Growth inhibition (%) MCF-7 (breast cancer (MCF-7)): 37%; Growth inhibition (%) PC-3 (prostate cancer (PC-3)): 20%; Growth inhibition (%) HCT-116 (colon cancer (HCT-116)): 3%
COc1cc(-c2cc(-c3ccc(C)cc3)nc3nc4[nH]c5ccccc5c(=O)n4c(=O)c23)cc(OC)c1OC [Compound 8d, 2-(p-Tolyl)-4–(3,4,5-trimethoxyphenyl)-5H-pyrido[2',3':4,5] pyrimido[2,1-b]quinazoline-5,7(12H)-dione]	> 300	97	15	95	78	IC50 (EGFR^T790M): 0.29 ± 0.023 µM; IC50 (EGFR^WT): 0.419 ± 0.029 µM; IC50 (lung cancer (A-549); [1]): 7.23 ± 2.1 µM; IC50 (prostate cancer (PC-3)): 7.12 ± 2 µM; IC50 (colon cancer (HCT-116)): 70.2 ± 2 µM; Cytotoxic activity against HCT-116 (colon cancer (HCT-116)): mild cytotoxic activity
COc1cc(-c2cc(-c3ccc(Cl)cc3)nc3nc4[nH]c5ccccc5c(=O)n4c(=O)c23)cc(OC)c1OC [Compound 8c, 2–(4-Chlorophenyl)-4–(3,4,5-trimethoxyphenyl)-5H-pyrido [2',3':4,5] pyrimido[2,1-b]quinazoline-5,7(12H)-dione]	< 300	8	21	17	9	–
COc1cc(-c2cc(-c3ccc(C)cc3)nc3nc4[nH]nc(-c5ccccc5)n4c(=O)c23)cc(OC)c1OC [Compound 12d, 3-Phenyl-8-(p-tolyl)-6–(3,4,5-trimethoxyphenyl)pyrido[2,3-d][1,2, 4]triazolo [4,3-a]pyrimidin-5(1H)-one]	322 to 324	4	15	14	5	–
O=c1[nH]c(=S)[nH]c2nc(-c3ccc(Cl)cc3)cc(-c3ccc(Cl)cc3Cl)c12 [Compound 7a, 7–(4-Chlorophenyl)-5–(2,4-dichlorophenyl)-2-thioxo-2,3-dihydropyrido [2,3-d]pyrimidin-4(1H)-one]	318 to 320	14	34	12	18	–
COc1cc(-c2cc(-c3ccc(Cl)cc3)nc3nc4[nH][nH]c(=O)n4c(=O)c23)cc(OC)c1OC [Compound 10c, 8-(4-Chlorophenyl)-6–(3,4,5-trimethoxyphenyl)-1,2-dihydropyrido[2,3-d][1,2, 4]triazolo[4,3-a]pyrimidine-3,5-dione]	367 to 369	9	8	52	23	–
